Results: patent EP4806911A1, “TRIPLE AGONIST COMPOUND” (Chengdu Aoda Biotechnology Co., Ltd, priority 2023, dated 2025)

How the values were obtained:
Type in all cases: cell-based
GIPR = target: T1, GIPR (Homo sapiens, UniProt P48546); assay: GIP activity test (cAMP, chemiluminescence); settings: CHO-K1 cell line stably expressing GIPR; relative luminescence units; read-out: GIP [EC50(pmol)]
T1 construct: expressed in transfected cells; host or cells: CHO-K1
T1 sequence (P48546 22-466): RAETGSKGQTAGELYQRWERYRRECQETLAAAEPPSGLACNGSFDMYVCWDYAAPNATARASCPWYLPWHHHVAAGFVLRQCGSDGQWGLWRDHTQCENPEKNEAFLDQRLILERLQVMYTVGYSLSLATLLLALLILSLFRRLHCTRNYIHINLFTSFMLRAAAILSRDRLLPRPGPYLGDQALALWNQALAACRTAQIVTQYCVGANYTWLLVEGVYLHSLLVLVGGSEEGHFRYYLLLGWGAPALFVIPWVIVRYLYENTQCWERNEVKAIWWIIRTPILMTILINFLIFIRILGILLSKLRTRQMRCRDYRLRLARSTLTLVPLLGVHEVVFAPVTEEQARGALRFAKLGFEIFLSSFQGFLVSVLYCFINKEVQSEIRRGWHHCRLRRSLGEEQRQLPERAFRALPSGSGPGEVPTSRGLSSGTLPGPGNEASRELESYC
Method: (§1) Upon stimulation by a specific agonist, GIPR activates the intracellular adenylate cyclase signaling pathway, resulting in an increase in cAMP levels and ultimately leading to insulin production and secretion. A cell line stably transfected with GIPR was stimulated with test compounds, thereby rapidly increasing intracellular cAMP levels. The relative luminescence units (RLU) of cells stimulated at various concentrations were measured by a chemiluminescence method, and the EC50 value of the agonist was calculated accordingly. This activity assay method is currently a commonly used method for evaluating GIP receptor agonist activity both domestically and internationally. A CHO-K1 cell line stably expressing GIPR was used. The stable cells were stimulated with agonists at different concentrations, and the relative luminescence units after stimulation at each concentration were measured to calculate the EC50 value of the agonist.

GCG-R = target: T2, GCG-R (Homo sapiens, UniProt P47871); assay: GCG activity test (cAMP, chemiluminescence); settings: CHO-K1 cell line stably expressing GCG-R; relative luminescence units; read-out: GCG [EC50(pmol)]
T2 construct: expressed in transfected cells; host or cells: CHO-K1
T2 sequence (P47871 26-477, species assumed): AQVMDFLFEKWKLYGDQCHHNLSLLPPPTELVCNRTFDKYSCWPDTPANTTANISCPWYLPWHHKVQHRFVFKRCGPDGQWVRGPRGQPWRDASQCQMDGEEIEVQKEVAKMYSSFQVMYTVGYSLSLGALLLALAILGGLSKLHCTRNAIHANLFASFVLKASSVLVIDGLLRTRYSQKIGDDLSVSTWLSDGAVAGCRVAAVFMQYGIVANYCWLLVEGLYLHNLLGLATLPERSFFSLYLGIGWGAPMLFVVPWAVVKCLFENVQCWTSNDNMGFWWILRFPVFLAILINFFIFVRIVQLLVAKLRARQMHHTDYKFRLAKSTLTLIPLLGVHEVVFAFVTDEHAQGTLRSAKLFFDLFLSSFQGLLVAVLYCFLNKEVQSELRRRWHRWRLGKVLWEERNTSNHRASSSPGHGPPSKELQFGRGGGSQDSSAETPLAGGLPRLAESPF
Method: as §1, with “GCG-R” for “GIPR”, “GCG” for “GIP”

GLP-1R = target: T3, GLP-1R (Homo sapiens, UniProt P43220); assay: GLP-1 activity test (cAMP, chemiluminescence); settings: CHO-K1 cell line stably expressing GLP-1R; relative luminescence units; read-out: GLP-1 [EC50(pmol)]
T3 construct: expressed in transfected cells; host or cells: CHO-K1
T3 sequence (P43220 24-463, species assumed): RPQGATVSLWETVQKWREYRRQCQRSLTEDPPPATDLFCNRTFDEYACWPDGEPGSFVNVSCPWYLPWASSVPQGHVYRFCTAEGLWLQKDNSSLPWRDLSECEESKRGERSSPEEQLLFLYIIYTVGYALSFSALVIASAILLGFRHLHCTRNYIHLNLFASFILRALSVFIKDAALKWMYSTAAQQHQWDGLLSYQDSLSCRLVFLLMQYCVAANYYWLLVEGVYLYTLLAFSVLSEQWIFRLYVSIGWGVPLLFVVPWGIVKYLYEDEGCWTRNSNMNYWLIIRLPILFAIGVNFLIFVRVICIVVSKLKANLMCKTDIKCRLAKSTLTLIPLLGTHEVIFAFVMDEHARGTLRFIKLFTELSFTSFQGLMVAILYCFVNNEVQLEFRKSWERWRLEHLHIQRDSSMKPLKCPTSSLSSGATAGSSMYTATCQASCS
Method: as §1, with “GLP-1R” for “GIPR”, “test” for “assay”, “GLP-1” for “GIP”

## CC[C@H](C)[C@H](NC(=O)[C@H](Cc1ccccc1)NC(=O)[C@H](C)NC(=O)C(C)(C)NC(=O)[C@H](CCC(N)=O)NC(=O)[C@H](C)NC(=O)[C@H](CCCCNC(=O)COCCOCCNC(=O)CC[C@H](NC(=O)CCCCCCCCCCCCCCCCCCC(=O)O)C(=O)O)NC(=O)[C@H](CCCCN)NC(=O)[C@H](CC(=O)O)NC(=O)[C@H](CC(C)C)NC(=O)C(C)(CC(C)C)NC(=O)[C@@H](NC(=O)[C@H](CO)NC(=O)[C@H](Cc1ccc(O)cc1)NC(=O)[C@H](CC(=O)O)NC(=O)[C@H](CO)NC(=O)[C@@H](NC(=O)C(C)(Cc1ccccc1)NC(=O)[C@@H](NC(=O)CNC(=O)[C@H](CCC(N)=O)NC(=O)C(C)(C)NC(=O)[C@@H](N)Cc1ccc(O)cc1)[C@@H](C)O)[C@@H](C)O)[C@@H](C)CC)C(=O)N[C@@H](CCC(=O)O)C(=O)N[C@@H](Cc1ccc(O)cc1)C(=O)N[C@@H](CC(C)C)C(=O)N[C@@H](CC(C)C)C(=O)N[C@@H](CCC(=O)O)C(=O)NCC(=O)NCC(=O)N1CCC[C@H]1C(=O)N[C@@H](CO)C(=O)N[C@@H](CO)C(=O)NCC(=O)N[C@@H](C)C(=O)N1CCC[C@H]1C(=O)N1CCC[C@H]1C(=O)N1CCC[C@H]1C(=O)N[C@@H](CO)C(N)=O (stereo partly drawn) [Compound 1]
GIPR
  EC50: 0.0226 nM
GCG-R
  EC50: 0.171 nM
GLP-1R
  EC50: 0.0502 nM

## CC[C@H](C)[C@H](NC(=O)[C@H](Cc1ccccc1)NC(=O)[C@H](C)NC(=O)C(C)(C)NC(=O)[C@H](CCC(N)=O)NC(=O)[C@H](C)NC(=O)[C@H](CCCCNC(=O)COCCOCCNC(=O)CC[C@H](NC(=O)CCCCCCCCCCCCCCCCCCC(=O)O)C(=O)O)NC(=O)[C@H](CCCCN)NC(=O)[C@H](CC(=O)O)NC(=O)[C@H](CC(C)C)NC(=O)C(C)(CC(C)C)NC(=O)[C@@H](NC(=O)[C@H](CO)NC(=O)[C@H](Cc1ccc(O)cc1)NC(=O)[C@H](CC(=O)O)NC(=O)[C@H](CO)NC(=O)[C@@H](NC(=O)C(C)(Cc1ccccc1F)NC(=O)[C@@H](NC(=O)CNC(=O)[C@H](CCC(N)=O)NC(=O)C(C)(C)NC(=O)[C@@H](N)Cc1ccc(O)cc1)[C@@H](C)O)[C@@H](C)O)[C@@H](C)CC)C(=O)N[C@@H](CCC(=O)O)C(=O)N[C@@H](Cc1ccc(O)cc1)C(=O)N[C@@H](CC(C)C)C(=O)N[C@@H](CC(C)C)C(=O)N[C@@H](CCC(=O)O)C(=O)NCC(=O)NCC(=O)N1CCC[C@H]1C(=O)N[C@@H](CO)C(=O)N[C@@H](CO)C(=O)NCC(=O)N[C@@H](C)C(=O)N1CCC[C@H]1C(=O)N1CCC[C@H]1C(=O)N1CCC[C@H]1C(=O)N[C@@H](CO)C(N)=O (stereo partly drawn) [Compound 5]
GIPR
  EC50: 0.0205 nM
GCG-R
  EC50: 0.138 nM
GLP-1R
  EC50: 0.0454 nM

## CC[C@H](C)[C@H](NC(=O)[C@H](Cc1ccccc1)NC(=O)[C@H](C)NC(=O)C(C)(C)NC(=O)[C@H](CCC(N)=O)NC(=O)[C@H](C)NC(=O)[C@H](CCCCNC(=O)COCCOCCNC(=O)COCCOCCNC(=O)CC[C@H](NC(=O)CCCCCCCCCCCCCCCCCCC(=O)O)C(=O)O)NC(=O)[C@H](CCCCN)NC(=O)[C@H](CC(=O)O)NC(=O)[C@H](CC(C)C)NC(=O)C(C)(CC(C)C)NC(=O)[C@@H](NC(=O)[C@H](CO)NC(=O)[C@H](Cc1ccc(O)cc1)NC(=O)[C@H](CC(=O)O)NC(=O)[C@H](CO)NC(=O)[C@@H](NC(=O)C(C)(Cc1ccccc1)NC(=O)[C@@H](NC(=O)CNC(=O)[C@H](CCC(N)=O)NC(=O)C(C)(C)NC(=O)[C@@H](N)Cc1ccc(O)cc1)[C@@H](C)O)[C@@H](C)O)[C@@H](C)CC)C(=O)N[C@@H](CCC(=O)O)C(=O)N[C@@H](Cc1ccc(O)cc1)C(=O)N[C@@H](CC(C)C)C(=O)N[C@@H](CC(C)C)C(=O)N[C@@H](CCC(=O)O)C(=O)NCC(=O)NCC(=O)N1CCC[C@H]1C(=O)N[C@@H](CO)C(=O)N[C@@H](CO)C(=O)NCC(=O)N[C@@H](C)C(=O)N1CCC[C@H]1C(=O)N1CCC[C@H]1C(=O)N1CCC[C@H]1C(=O)N[C@@H](CO)C(N)=O (stereo partly drawn) [Compound 9]
GIPR
  EC50: 0.0285 nM
GCG-R
  EC50: 0.186 nM
GLP-1R
  EC50: 0.0612 nM

## CC[C@H](C)[C@H](NC(=O)[C@H](Cc1ccccc1)NC(=O)[C@H](C)NC(=O)C(C)(C)NC(=O)[C@H](CCC(N)=O)NC(=O)[C@H](C)NC(=O)[C@H](CCCCNC(=O)COCCOCCNC(=O)COCCOCCNC(=O)CC[C@H](NC(=O)CCCCCCCCCCCCCCCCCCC(=O)O)C(=O)O)NC(=O)[C@H](CCCCN)NC(=O)[C@H](CC(=O)O)NC(=O)[C@H](CC(C)C)NC(=O)C(C)(CC(C)C)NC(=O)[C@@H](NC(=O)[C@H](CO)NC(=O)[C@H](Cc1ccc(O)cc1)NC(=O)[C@H](CC(=O)O)NC(=O)[C@H](CO)NC(=O)[C@@H](NC(=O)C(C)(Cc1ccccc1F)NC(=O)[C@@H](NC(=O)CNC(=O)[C@H](CCC(N)=O)NC(=O)C(C)(C)NC(=O)[C@@H](N)Cc1ccc(O)cc1)[C@@H](C)O)[C@@H](C)O)[C@@H](C)CC)C(=O)N[C@@H](CCC(=O)O)C(=O)N[C@@H](Cc1ccc(O)cc1)C(=O)N[C@@H](CC(C)C)C(=O)N[C@@H](CC(C)C)C(=O)N[C@@H](CCC(=O)O)C(=O)NCC(=O)NCC(=O)N1CCC[C@H]1C(=O)N[C@@H](CO)C(=O)N[C@@H](CO)C(=O)NCC(=O)N[C@@H](C)C(=O)N1CCC[C@H]1C(=O)N1CCC[C@H]1C(=O)N1CCC[C@H]1C(=O)N[C@@H](CO)C(N)=O (stereo partly drawn) [Compound 11]
GIPR
  EC50: 0.027 nM
GCG-R
  EC50: 0.166 nM
GLP-1R
  EC50: 0.0536 nM

## CC[C@H](C)[C@H](NC(=O)[C@H](Cc1ccccc1)NC(=O)[C@H](C)NC(=O)C(C)(C)NC(=O)[C@H](CCC(N)=O)NC(=O)[C@H](C)NC(=O)[C@H](CCCCNC(=O)COCCOCCNC(=O)CC[C@H](NC(=O)CCCCCCCCCCCCCCCCCCC(=O)O)C(=O)O)NC(=O)[C@H](CCCCN)NC(=O)[C@H](CC(=O)O)NC(=O)[C@H](CC(C)C)NC(=O)[C@](C)(CC(C)C)NC(=O)[C@@H](NC(=O)[C@H](CO)NC(=O)[C@H](Cc1ccc(O)cc1)NC(=O)[C@H](CC(=O)O)NC(=O)[C@H](CO)NC(=O)[C@@H](NC(=O)[C@H](Cc1ccccc1)NC(=O)[C@@H](NC(=O)CNC(=O)[C@H](CCC(N)=O)NC(=O)C(C)(C)NC(=O)[C@@H](N)Cc1ccc(O)cc1)[C@@H](C)O)[C@@H](C)O)[C@@H](C)CC)C(=O)N[C@@H](CCC(=O)O)C(=O)N[C@@H](Cc1ccc(O)cc1)C(=O)N[C@@H](CC(C)C)C(=O)N[C@@H](CC(C)C)C(=O)N[C@@H](CCC(=O)O)C(=O)NCC(=O)NCC(=O)N1CCC[C@H]1C(=O)N[C@@H](CO)C(=O)N[C@@H](CO)C(=O)NCC(=O)N[C@@H](C)C(=O)N1CCC[C@H]1C(=O)N1CCC[C@H]1C(=O)N1CCC[C@H]1C(=O)N[C@@H](CO)C(N)=O [retatrutide, Retatrutide, reference compound]
GIPR
  EC50: 0.0342 nM
GCG-R
  EC50: 0.523 nM
GLP-1R
  EC50: 0.046 nM
